Among the test systems are MDA-N; SW-620; SF-268; BT-549; SF-295; M14; SF-539; NCI-H460; CAKI-1; HCT-15; Hs-578T; SK-MEL-5; 786-0; SR; A549; UACC-62; MOLT-4; SK-OV-3.
What all share (experiment): inhibition of tumour cell growth, NCI panel, 48 h

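Step 1: Grow cells in 96-well plates. Step 2: Expose to compound for 48 hours at 5 concentrations. Step 3: Interpolate endpoints linearly; if unreached, use highest concentration. Abbreviation: GI50, concentration required for 50% inhibition of growth.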 Calls of active or inactive are those of the source. No stated cut-off is given here; in the data, active = GI50 up to about 1.1 µM and inactive = higher.

Turning to `O=C(c1ccccc1)C1C(C(=O)c2ccccc2)C(c2ccccc2)N(c2ccccc2)C1c1ccccc1` (centres undefined), the GI50 with MDA-N, in the assay on SW-620, in the assay on SF-268, with BT-549, in the assay with SF-295 and in the assay with M14 was > 100 µM (inactive) in each case. Also, the GI50 in the assay on SF-539 is > 100 µM (inactive); with NCI-H460, > 100 µM (inactive); in the assay on CAKI-1, > 100 µM (inactive); in the assay with HCT-15 it was above 100 µM; in the assay on Hs-578T, 48 µM (inactive); in the assay on SK-MEL-5 it was > 100 µM (inactive). Further, the GI50 in the assay on 786-0, in the assay on SR, in the assay with A549, in the assay with UACC-62 and in the assay on MOLT-4 was > 100 µM (inactive) each time.
Turning to `COc1ccc2c(c1O)C13CCN(C)C(C2)C1CCC1(C3)OCCO1` (centres undefined), the GI50 in the assay with MDA-N, in the assay with SW-620, in the assay with SF-268, in the assay on BT-549, with SF-295 and in the assay with M14 was > 100 µM (inactive) in each case. Also, the GI50 in the assay on NCI-H460 was > 100 µM (inactive); in the assay on CAKI-1 it was > 100 µM (inactive); in the assay on HCT-15, above 100 µM; in the assay on Hs-578T, > 100 µM (inactive); with SK-OV-3 it was > 100 µM (inactive); in the assay on SK-MEL-5, > 100 µM (inactive). Besides, the GI50 with 786-0, in the assay on SR, in the assay with A549, in the assay on UACC-62 and in the assay on MOLT-4 was > 100 µM (inactive) each time.
As to `Cc1c2ccccc2cc2cccc[n+]12`, the GI50 is 37.8 µM (inactive) in the assay with MDA-N; 8.34 µM (inactive) with SW-620; 10.4 µM (inactive) with SF-268; 23.4 µM (inactive) with BT-549; 34.8 µM (inactive) in the assay with SF-295; 32.1 µM (inactive) with SF-539. Also, the GI50 in the assay with NCI-H460 was 35.2 µM (inactive); in the assay with HCT-15, above 100 µM; in the assay on Hs-578T it was 25.6 µM (inactive); in the assay on SK-MEL-5, 27.4 µM (inactive); with 786-0, 61.8 µM (inactive); in the assay on SR, 12.6 µM (inactive). In addition, the GI50 in the assay on A549 is 6.82 µM (inactive); with UACC-62, 41.7 µM (inactive); in the assay on MOLT-4 it was 13 µM (inactive).
Turning to `O=[N+]([O-])c1ccc(N/N=C2\C=CCCC2)c([N+](=O)[O-])c1`, the GI50 in the assay on MDA-N is > 100 µM (inactive); in the assay with SW-620 it was > 100 µM (inactive); in the assay with SF-268, > 100 µM (inactive); in the assay with BT-549, > 100 µM (inactive); with SF-295 it was 31.3 µM (inactive); with M14, > 100 µM (inactive). The GI50 is > 100 µM (inactive) in the assay with NCI-H460; > 100 µM (inactive) in the assay with CAKI-1; above 100 µM in the assay with HCT-15; 27.3 µM (inactive) with Hs-578T; > 100 µM (inactive) with SK-OV-3; > 100 µM (inactive) with SK-MEL-5. Further, the GI50 is > 100 µM (inactive) in the assay with 786-0; > 100 µM (inactive) in the assay with SR; > 100 µM (inactive) in the assay on A549; > 100 µM (inactive) with UACC-62; > 10 µM (inactive) in the assay with MOLT-4.
With `CC(NC(=O)C(N)CC(=O)O)NC(=O)N(C)C(C)(C)C` (centres undefined), the GI50 in the assay with MDA-N, in the assay with SW-620, with SF-268, with BT-549, with SF-295 and in the assay with M14 was > 100 µM (inactive) throughout. The GI50 was > 100 µM (inactive) in the assay on SF-539; > 100 µM (inactive) in the assay on NCI-H460; > 100 µM (inactive) in the assay on CAKI-1; above 100 µM in the assay on HCT-15; > 100 µM (inactive) in the assay on Hs-578T; > 100 µM (inactive) in the assay on SK-OV-3. Moreover, the GI50 in the assay with SK-MEL-5, in the assay on 786-0, in the assay with SR, in the assay with A549, in the assay on UACC-62 and with MOLT-4 was > 100 µM (inactive) throughout.

For the origin of these results see ChEMBL document CHEMBL1201862, “PubChem BioAssay data set” (2004).
